# Active and inactive are the calls of the source.
# What was measured:
# [1] = Luminescence Cell-Based Dose Confirmation to Identify Activators of 5'UTR Stem-Loop Driven Alpha-Synuclein mRNA Translation in H4 Neuroglioblastoma Cells. [Related pubchem assays: 1829 (Project Summary), 1814 (Primary HTS)]; format: functional
# [2] = Luminescence Cell-Based Dose Confirmation HTS to Identify Activators of 5'UTR Stem-Loop Driven Alpha-Synuclein mRNA Translation in H4 Neuroglioblastoma Cells. [Related pubchem assays: 1829 (Project Summary), 1814 (Primary HTS)]; format: functional
# [3] = HepG2 cell cytotoxicity, dose response, cytotoxicity control, ATP luminescence, cherry-pick, activator set 2 (AID 1053143); format: functional, cell-based
# [4] = target: T1, Nuclear receptor subfamily 0 group B member 1 (Homo sapiens, UniProt P51843); assay: Luminescence-based cell-based high throughput dose response assay for inhibitors of the orphan nuclear receptor subfamily 0, group B, member 1 (DAX1; NR0B1). [Related pubchem assays (depositor defined):AID504766, AID504790]; format: functional
# T1 sequence (P51843 whole entry): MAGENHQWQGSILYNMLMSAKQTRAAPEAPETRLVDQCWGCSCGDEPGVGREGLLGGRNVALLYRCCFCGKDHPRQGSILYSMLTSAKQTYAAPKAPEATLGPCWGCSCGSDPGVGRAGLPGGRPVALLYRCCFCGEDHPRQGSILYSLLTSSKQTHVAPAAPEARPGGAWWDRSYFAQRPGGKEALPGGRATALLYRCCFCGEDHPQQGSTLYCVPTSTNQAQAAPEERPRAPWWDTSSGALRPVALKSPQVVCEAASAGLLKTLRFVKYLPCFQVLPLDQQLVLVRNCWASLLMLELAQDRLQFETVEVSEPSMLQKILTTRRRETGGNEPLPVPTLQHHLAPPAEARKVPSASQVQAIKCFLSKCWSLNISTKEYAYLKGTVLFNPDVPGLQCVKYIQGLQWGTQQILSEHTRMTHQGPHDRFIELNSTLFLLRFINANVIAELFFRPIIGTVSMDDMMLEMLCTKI
# HEK293 = assay: cells; format: functional, cell-based; details: Homo sapiens
# [5] = Luminescence Cell-Based Dose Response to Identify Activators of 5'UTR Stem-Loop Driven Prion Protein mRNA Translation in H4-C Neuroglioblastoma Cells. [Related pubchem assays: 1829 (Project Summary), 1814 (Primary HTS)]; format: functional
# H4 = assay: Luminescence Cell-Based Dose Response HTS to Identify Activators of 5'UTR Stem-Loop Driven Prion Protein mRNA Translation in H4 Neuroglioblastoma Cells. [Related pubchem assays: 1829 (Project Summary), 1814 (Primary HTS)]; format: functional; details: Homo sapiens
# [6] = Luminescence Cell-Based Dose Response HTS to Identify Activators of Luciferase Translation or Activity in H4 […] Cells. [Related pubchem assays: 1829 (Project Summary), 1814 (Primary HTS)]; format: functional
# [7] = Luminescence Cell-Based Dose Response to Identify Activators of Luciferase Translation or Activity in H4-C Neuroglioblastoma Cells. [Related pubchem assays: 1829 (Project Summary), 1814 (Primary HTS)]; format: functional
# [8] = target: DNA dC->dU-editing enzyme APOBEC-3A (Homo sapiens, UniProt P31941); assay: SAR analysis of small molecule inhibitors of APOBEC3A DNA Deaminase via a fluorescence-based single-stranded DNA deaminase assay.; format: functional; details: read-out: IC50_Mean
# [9] = target: DNA dC->dU-editing enzyme APOBEC-3G (Homo sapiens, UniProt Q9HC16); assay: APOBEC3G deaminase inhibitors, SAR follow-up, biochemical, fluorescence, single-stranded DNA substrate (AID 602136); format: functional; details: read-out: IC50_Mean
# DNA topoisomerase = DNA topoisomerase (Yersinia pestis, UniProt A0A2S9PM60); assay: Y. pestis Topo-I inhibitors, cleavage product readout, dose response, biochemical, cherry-pick (AID 588525)
# INS1 = assay: inhibitors of cytokine-induced nitrite release, dose response, cell-based, Griess absorbance, INS-1E, dry powder, set 2 (AID 488868); format: functional; details: Rattus norvegicus
# [10] = inhibitors of cytokine-induced nitrite release, dose response, cell-based, Griess absorbance, INS-1E, dry powder, set 3 (AID 488870); format: functional; details: Rattus norvegicus
# [11] = target: T2, V-type proton ATPase subunit c' (Saccharomyces cerevisiae S288c, UniProt P32842); assay: Dose Response with BCECF Assay for V-ATPase inhibitors that increase vacuolar pH, Powder Set 1.; format: functional; details: read-out: EC50_MICROM
# cells = format: functional
# [12] = target: T2, V-type proton ATPase subunit c'; assay: Dose Response of Small Molecules that Regulate V-ATPase Proton Transport in Yeast using pHLuorin, Cherry Pick 2.; format: functional; details: read-out: EC50_MICROM
# [13] = target: T3, Type-1 angiotensin II receptor (Homo sapiens, UniProt P30556); assay: AT1 receptor antagonists, dose response, selectivity assay for APJ receptor antagonist project, cell-based, uHTS hits (AID 463214); format: functional;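 note: antagonist potency against angiotensin II stimulated AT1 response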
# T3 sequence (P30556 whole entry): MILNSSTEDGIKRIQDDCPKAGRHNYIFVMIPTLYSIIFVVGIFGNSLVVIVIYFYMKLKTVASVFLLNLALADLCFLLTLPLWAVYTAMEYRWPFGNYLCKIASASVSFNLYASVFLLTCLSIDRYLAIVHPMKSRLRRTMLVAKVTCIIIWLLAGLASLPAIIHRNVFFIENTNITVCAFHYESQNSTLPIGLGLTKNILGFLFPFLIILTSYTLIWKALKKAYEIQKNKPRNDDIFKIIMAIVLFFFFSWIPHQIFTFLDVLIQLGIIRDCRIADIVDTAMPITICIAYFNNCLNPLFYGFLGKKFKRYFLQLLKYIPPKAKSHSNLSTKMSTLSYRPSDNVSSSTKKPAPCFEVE
# Beta-galactosidase = Beta-galactosidase (Escherichia coli, UniProt Q8VNN2); assay: PubChem AID 485352; format: functional
# Beta Lactamase = Beta Lactamase (Pseudomonas aeruginosa, UniProt Q932Y6); assay: beta-lactamase reporter inhibitor potency, dose response, artefact control for TLR9-MyD88 binding inhibitor project, BLA reporter cells, FRET fluorescence (AID 588341); format: cell-based;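 note: cell based assay in CHO-K1 cells stably expressing beta-lactamase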
# CHO = assay: cytotoxicity in TLR9-MyD88 CHO cells, dose response, cytotoxicity control for TLR9-MyD88 binding inhibitor project, cell-based, luminescence (AID 588339); format: functional, hamster; details: Cricetulus griseus;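 note: CHO cells stably coexpressing TLR9 and MyD88 fusions from primary screen; compound exposure lasted 48 hours before viability readout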
# [14] = target: T4, Histone-lysine N-methyltransferase NSD2 (Homo sapiens, UniProt O96028); format: biochemical
# T4 sequence (O96028 whole entry): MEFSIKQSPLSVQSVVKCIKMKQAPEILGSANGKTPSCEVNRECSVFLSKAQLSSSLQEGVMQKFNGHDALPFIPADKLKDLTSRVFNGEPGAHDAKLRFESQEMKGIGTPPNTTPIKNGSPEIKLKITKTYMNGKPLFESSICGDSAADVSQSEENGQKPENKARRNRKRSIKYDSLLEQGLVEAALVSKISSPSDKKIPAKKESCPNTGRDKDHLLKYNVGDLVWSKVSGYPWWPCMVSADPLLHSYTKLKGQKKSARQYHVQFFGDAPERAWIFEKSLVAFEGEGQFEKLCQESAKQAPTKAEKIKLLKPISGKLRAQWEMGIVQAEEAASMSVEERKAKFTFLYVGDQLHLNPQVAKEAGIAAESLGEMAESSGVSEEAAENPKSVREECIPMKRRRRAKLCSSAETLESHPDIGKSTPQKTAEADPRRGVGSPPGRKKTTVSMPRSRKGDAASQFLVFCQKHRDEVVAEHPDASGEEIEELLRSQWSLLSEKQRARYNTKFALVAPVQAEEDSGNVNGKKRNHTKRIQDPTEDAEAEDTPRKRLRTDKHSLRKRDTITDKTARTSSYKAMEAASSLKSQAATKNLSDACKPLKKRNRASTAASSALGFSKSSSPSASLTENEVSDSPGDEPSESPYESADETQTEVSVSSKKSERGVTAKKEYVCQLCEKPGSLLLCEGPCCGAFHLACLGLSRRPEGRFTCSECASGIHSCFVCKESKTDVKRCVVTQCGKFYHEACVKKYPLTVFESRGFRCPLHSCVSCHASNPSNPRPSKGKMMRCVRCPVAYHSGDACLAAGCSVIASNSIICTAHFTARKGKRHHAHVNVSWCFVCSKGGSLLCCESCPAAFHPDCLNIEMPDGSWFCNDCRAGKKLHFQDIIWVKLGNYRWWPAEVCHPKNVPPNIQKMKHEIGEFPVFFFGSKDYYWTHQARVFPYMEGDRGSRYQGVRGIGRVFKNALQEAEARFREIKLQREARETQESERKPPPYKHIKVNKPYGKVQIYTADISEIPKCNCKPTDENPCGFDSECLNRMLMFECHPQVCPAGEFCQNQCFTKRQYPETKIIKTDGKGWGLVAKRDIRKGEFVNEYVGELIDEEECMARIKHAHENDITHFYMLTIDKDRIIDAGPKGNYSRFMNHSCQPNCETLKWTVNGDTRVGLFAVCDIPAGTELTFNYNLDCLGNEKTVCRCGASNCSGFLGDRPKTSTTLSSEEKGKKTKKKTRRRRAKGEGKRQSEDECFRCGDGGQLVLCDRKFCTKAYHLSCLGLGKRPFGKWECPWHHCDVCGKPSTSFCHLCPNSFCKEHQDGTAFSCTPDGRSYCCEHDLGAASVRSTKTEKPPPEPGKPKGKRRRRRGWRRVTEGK
# [15] = target: T5, Sentrin-specific protease 8 (Homo sapiens, UniProt Q96LD8); format: functional
# T5 sequence (Q96LD8 whole entry): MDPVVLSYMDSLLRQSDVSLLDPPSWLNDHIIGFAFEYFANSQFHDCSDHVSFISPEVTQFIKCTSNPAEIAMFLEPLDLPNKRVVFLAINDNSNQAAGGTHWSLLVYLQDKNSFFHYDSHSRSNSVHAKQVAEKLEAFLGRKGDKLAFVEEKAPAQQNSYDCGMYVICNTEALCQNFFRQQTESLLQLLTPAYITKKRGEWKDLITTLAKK
# [16] = target: Tyrosyl-DNA phosphodiesterase 2 (Homo sapiens, UniProt O95551); assay: human TDP2 enzyme inhibitors, dose response, biochemical, epi absorbance, IC50 (AID 743297)
# [17] = target: T5, Sentrin-specific protease 8; format: functional; remark: listed apart in the source
# [18] = target: T6, Apoptotic protease-activating factor 1 (Homo sapiens, UniProt O14727); format: functional
# T6 sequence (O14727 whole entry): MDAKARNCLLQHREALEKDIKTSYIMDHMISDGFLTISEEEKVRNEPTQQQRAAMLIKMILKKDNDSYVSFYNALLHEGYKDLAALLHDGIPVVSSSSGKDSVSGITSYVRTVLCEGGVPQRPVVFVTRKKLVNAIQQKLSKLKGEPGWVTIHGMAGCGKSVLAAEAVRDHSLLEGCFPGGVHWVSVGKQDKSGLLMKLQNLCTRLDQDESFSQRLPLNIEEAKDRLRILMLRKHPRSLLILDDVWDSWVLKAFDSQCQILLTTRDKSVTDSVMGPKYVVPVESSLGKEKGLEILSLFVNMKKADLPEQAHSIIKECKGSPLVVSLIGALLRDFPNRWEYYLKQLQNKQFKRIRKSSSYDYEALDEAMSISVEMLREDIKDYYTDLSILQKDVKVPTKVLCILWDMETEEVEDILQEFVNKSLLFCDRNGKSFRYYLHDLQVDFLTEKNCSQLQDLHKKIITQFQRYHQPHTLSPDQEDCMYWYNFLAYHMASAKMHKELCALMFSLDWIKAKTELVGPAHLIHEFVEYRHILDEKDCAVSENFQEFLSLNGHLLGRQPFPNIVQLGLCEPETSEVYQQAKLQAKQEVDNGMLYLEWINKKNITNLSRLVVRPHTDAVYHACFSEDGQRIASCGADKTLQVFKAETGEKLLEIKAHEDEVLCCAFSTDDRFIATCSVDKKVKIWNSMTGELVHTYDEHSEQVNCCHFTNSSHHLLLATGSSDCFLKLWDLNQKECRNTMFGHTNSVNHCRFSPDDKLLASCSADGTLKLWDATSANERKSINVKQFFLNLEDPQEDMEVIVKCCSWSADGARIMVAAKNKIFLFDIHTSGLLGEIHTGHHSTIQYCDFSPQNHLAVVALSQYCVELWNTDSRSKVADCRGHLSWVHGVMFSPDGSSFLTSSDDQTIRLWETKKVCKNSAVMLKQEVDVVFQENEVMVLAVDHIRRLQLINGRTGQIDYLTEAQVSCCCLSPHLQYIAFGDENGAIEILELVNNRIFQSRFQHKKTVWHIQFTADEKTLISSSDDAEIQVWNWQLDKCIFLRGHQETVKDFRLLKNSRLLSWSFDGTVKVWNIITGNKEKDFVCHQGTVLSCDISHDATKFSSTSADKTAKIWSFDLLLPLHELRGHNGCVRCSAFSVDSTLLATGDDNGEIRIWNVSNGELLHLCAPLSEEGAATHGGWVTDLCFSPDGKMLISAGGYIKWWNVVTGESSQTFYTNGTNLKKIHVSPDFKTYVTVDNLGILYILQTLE
# T2 sequence (P32842 whole entry): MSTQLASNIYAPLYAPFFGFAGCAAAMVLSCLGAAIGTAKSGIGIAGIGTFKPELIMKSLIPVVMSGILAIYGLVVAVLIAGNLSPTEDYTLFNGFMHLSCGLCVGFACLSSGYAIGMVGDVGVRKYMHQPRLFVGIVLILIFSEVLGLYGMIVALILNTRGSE
# DNA dC->dU-editing enzyme APOBEC-3A, sequence (P31941 whole entry): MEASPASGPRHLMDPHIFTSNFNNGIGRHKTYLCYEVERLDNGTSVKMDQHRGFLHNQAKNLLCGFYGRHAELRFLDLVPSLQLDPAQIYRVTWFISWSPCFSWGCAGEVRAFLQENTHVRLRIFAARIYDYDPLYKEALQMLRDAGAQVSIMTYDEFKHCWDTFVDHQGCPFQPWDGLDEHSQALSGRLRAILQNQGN
# Beta-galactosidase, sequence (Q8VNN2 whole entry): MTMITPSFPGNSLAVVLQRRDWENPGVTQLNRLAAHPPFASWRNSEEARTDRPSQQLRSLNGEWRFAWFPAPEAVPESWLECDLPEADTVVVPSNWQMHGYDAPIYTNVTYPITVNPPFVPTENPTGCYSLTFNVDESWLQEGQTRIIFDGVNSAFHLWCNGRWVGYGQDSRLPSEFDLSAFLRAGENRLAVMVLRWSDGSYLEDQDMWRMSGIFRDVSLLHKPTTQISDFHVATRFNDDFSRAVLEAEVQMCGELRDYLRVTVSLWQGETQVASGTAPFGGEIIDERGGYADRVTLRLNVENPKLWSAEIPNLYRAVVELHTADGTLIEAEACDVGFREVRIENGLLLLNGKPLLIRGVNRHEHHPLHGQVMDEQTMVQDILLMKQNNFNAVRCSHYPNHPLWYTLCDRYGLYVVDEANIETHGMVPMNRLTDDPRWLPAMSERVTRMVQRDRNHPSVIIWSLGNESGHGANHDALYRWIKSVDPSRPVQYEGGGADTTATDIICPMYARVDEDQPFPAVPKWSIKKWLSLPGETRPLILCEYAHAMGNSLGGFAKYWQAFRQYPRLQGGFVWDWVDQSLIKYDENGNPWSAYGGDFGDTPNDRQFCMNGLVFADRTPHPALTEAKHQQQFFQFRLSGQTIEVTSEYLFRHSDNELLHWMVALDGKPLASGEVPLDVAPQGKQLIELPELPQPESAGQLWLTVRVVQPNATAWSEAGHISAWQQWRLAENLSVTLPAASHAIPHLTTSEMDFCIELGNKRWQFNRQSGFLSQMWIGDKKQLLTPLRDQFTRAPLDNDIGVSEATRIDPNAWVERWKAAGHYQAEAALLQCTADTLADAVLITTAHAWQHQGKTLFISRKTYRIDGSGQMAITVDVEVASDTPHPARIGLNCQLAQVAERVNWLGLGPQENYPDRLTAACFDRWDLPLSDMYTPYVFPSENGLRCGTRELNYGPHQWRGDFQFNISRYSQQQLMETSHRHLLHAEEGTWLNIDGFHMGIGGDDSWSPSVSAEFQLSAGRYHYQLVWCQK
# DNA topoisomerase, sequence (A0A2S9PM60 whole entry): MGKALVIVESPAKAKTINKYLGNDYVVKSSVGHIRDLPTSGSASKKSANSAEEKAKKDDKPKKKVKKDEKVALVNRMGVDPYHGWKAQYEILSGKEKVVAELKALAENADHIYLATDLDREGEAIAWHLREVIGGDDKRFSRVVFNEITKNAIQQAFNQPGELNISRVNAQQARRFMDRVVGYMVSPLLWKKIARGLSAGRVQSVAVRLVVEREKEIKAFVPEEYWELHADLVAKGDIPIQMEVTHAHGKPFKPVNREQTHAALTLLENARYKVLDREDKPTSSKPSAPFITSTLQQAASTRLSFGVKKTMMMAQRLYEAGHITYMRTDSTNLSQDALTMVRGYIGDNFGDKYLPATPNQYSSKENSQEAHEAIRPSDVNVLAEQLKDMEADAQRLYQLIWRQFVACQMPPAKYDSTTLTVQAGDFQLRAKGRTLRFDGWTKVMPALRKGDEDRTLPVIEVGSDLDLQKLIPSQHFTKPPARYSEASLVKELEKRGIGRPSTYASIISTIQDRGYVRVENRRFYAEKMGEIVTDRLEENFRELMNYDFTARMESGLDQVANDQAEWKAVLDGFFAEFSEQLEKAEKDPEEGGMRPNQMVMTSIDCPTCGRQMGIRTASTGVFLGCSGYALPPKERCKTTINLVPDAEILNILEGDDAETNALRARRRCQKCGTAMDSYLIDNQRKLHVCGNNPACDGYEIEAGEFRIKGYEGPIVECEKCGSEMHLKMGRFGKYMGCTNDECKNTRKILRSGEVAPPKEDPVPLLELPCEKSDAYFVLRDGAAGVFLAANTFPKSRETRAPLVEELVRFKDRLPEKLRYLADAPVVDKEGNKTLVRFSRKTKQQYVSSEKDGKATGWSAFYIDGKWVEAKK
# DNA dC->dU-editing enzyme APOBEC-3G, sequence (Q9HC16 whole entry): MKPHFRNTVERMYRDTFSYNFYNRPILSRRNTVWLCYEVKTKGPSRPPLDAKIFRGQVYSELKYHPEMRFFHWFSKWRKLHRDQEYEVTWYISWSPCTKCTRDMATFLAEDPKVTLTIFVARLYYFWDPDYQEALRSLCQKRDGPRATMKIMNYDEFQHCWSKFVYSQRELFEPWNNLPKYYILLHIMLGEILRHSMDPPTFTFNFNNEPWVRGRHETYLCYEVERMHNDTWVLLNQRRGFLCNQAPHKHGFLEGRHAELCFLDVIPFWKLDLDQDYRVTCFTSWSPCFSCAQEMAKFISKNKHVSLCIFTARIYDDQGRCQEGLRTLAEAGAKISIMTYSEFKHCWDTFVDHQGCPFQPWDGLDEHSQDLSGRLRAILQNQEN
# Beta Lactamase, sequence (Q932Y6 whole entry, the tested form may be a part): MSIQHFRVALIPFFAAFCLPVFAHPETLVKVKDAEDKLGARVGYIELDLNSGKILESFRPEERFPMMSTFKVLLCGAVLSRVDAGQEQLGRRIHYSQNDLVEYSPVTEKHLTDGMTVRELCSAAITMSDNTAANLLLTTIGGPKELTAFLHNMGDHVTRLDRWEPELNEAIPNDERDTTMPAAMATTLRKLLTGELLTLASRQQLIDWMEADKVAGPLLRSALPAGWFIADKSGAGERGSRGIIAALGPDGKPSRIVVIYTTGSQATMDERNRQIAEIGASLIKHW
# Tyrosyl-DNA phosphodiesterase 2, sequence (O95551 whole entry): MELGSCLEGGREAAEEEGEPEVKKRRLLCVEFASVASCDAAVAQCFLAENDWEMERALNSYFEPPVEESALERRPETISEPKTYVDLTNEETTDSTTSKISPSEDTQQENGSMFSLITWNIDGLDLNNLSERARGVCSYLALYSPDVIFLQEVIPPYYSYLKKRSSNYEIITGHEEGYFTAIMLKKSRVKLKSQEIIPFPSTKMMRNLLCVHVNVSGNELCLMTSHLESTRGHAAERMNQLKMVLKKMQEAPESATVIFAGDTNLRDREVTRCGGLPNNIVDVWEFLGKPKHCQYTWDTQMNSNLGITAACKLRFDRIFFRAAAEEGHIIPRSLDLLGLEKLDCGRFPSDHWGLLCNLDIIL
structure (smiles),measurement,setting,value
O=C(Nc1ncccc1O)c1ccc2c(c1)OCCO2,EC50,[1],0.329 µM (active)
same,EC50,[2],0.185 µM (active)
same,AC50,[3],12 µM (active)
same,IC50,[4],> 67.5 µM (inactive)
same,IC50,HEK293,1.59 µM (active)
same,EC50,[5],7.24 µM (active)
same,EC50,H4,0.139 µM (active)
same,EC50,[6],0.155 µM (active)
same,EC50,[7],> 12 µM (not active)
Cc1cc(C(=O)CSc2nnc3scc(-c4ccccc4)n23)c(C)n1-c1cc(F)ccc1F,IC50,[8],> 99 µM (inactive)
same,IC50,[9],> 99 µM (inactive)
Cc1ccc(-n2c(C)cc(C(=O)Cn3nc(C(=O)O)c4ccccc4c3=O)c2C)cc1,AC50,DNA topoisomerase,5.3 µM (active)
COc1ccc(S(=O)(=O)N(C)C[C@@H]2Oc3c(NC(=O)NC4CCCCC4)cccc3C(=O)N([C@@H](C)CO)C[C@H]2C)cc1,AC50,INS1,44.5 µM (active)
same,AC50,[10],64.5 µM (active)
O=C(c1ccc([N+](=O)[O-])o1)N1CCN(c2nc3ccc(F)cc3s2)CC1,EC50,[11],0.384 µM (active)
same,IC50,cells,< 0.1 µM (active)
same,EC50,[12],3.64 µM (active)
CN1/C(=c2/s/c(=C3/C(=O)N(c4ccccc4)N=C3Nc3ccccc3)n(C)c2=O)C(C)(C)c2ccccc21,IC50,[13],27 µM (not active)
same,EC50,Beta-galactosidase,39.9 µM (active)
O=C(C1=NN(c2ccccc2)C2C(=O)N(c3ccc(Cl)cc3)C(=O)C12)c1ccccc1 (stereo unspecified),IC50,Beta Lactamase,11.8 µM (inactive)
same,IC50,CHO,> 49.7 µM (inactive)
C[n+]1cccc2c(Br)ccc([O-])c21,AC50,[14],7.45 µM (active)
same,IC50,[15],1.64 µM (active)
same,IC50,[16],> 42.8 µM (inactive)
same,IC50,[17],4.18 µM (active)
same,IC50,[18],92 µM (active)
